In article PMC11074101 (Cell Discovery, 2024):

What was measured:
Type in all cases: cell-based
MCHR1 D192(3.32)A = target: T1, MCHR1 D192(3.32)A (Homo sapiens, UniProt Q99705, D123A); assay: GloSensor cAMP assay, MCHR1 D192A; settings: HEK293, mean ± S.E.M., n = 3 in triplicate
T1 construct: expressed in transfected cells; host or cells: HEK293
Description: (§1) The gene sequences encoding human MCHR1 (residues 70‒405) and MCHR2 (residues 1‒331, with L256^6.40Y mutation) were subcloned into pFastBac vector (Invitrogen) with an N-terminal haemagglutinin signal peptide (HA) and a thermostabilized BRIL fusion, followed by a C-terminal 15-amino acid linker, a LgBiT subunit and two MBPs to facilitate receptor expression and stability. The Gαi construct was designed with dominant-negative mutations S47N, G203A, A326S, and E245A to decrease the affinity of nucleotide-binding and stable Gαβγ complex. The mini-Gαq construct was designed with the C-terminal α-helix (αH5) of Gαq, which is critical for G protein coupling selectivity. The core of the construct, known as the Ras domain, is derived from Gαs. This design choice was made to enable the binding of the nanobody Nb35, which stabilizes the complex for cryo-EM analysis. […] Rat Gβ1 was constructed with a N-terminal 16× His-tag for purification and a C-terminal HiBiT to form a NanoBiT with LgBiT. […] The wild-type and mutants of MCHR1 and MCHR2 were constructed into the pcDNA6.0 vector […] for functional assays.
(§2) GloSensor cAMP assay was used to detect the downstream Gαi signal of MCHR1 using GloSensor cAMP Reagent (Promega).

MCHR2 F177(ECL2)A = target: T2, MCHR2 F177(ECL2)A (Homo sapiens, UniProt Q969V1, F177A); assay: IP-One IP1 accumulation assay, MCHR2 F177A; settings: n = 3 in triplicate
T2 construct: expressed in transfected cells; host or cells: AD293
Description: (§3) The gene sequences encoding human MCHR1 (residues 70‒405) and MCHR2 (residues 1‒331, with L256^6.40Y mutation) were subcloned into pFastBac vector (Invitrogen) with an N-terminal haemagglutinin signal peptide (HA) and a thermostabilized BRIL fusion, followed by a C-terminal 15-amino acid linker, a LgBiT subunit and two MBPs to facilitate receptor expression and stability. The Gαi construct was designed with dominant-negative mutations S47N, G203A, A326S, and E245A to decrease the affinity of nucleotide-binding and stable Gαβγ complex. The mini-Gαq construct was designed with the C-terminal α-helix (αH5) of Gαq, which is critical for G protein coupling selectivity. The core of the construct, known as the Ras domain, is derived from Gαs. This design choice was made to enable the binding of the nanobody Nb35, which stabilizes the complex for cryo-EM analysis. […]
(§4) IP1 accumulation assay was applied for the detection of the downstream Gαq signal of MCHR2 using the IP-One HTRF kit (Cisbio). […] Before measurement, the samples were incubated at RT for 30 min and measured with EnVision multi-plate reader (PerkinElmer).
(§5) Concentration–response curves were evaluated with a three-parameter logistic equation. The significance was determined with one-way ANOVA with Tukey’s test, and P < 0.05 vs wild type was considered statistically significant.

MCHR1 F161(2.53)A = target: T3, MCHR1 F161(2.53)A (Homo sapiens, UniProt Q99705, F92A); assay: GloSensor cAMP assay, MCHR1 F161A; settings: HEK293, mean ± S.E.M., n = 3 in triplicate
T3 construct: expressed in transfected cells; host or cells: HEK293
Description: as §1, §2

MCHR2 Q92(2.63)A = target: T4, MCHR2 Q92(2.63)A (Homo sapiens, UniProt Q969V1, Q92A); assay: IP-One IP1 accumulation assay, MCHR2 Q92A; settings: n = 3 in triplicate
T4 construct: expressed in transfected cells; host or cells: AD293
Description: as §3, §4, §5

MCHR2 WT = target: T5, MCHR2 WT (Homo sapiens, UniProt Q969V1); assay: IP-One IP1 accumulation assay, MCHR2 WT (Gαq); settings: AD293, IP-One HTRF, mean ± S.E.M.
T5 construct: expressed in transfected cells; host or cells: AD293
Description: as §3, §4, §5

MCHR2 S295(7.42)A = target: T6, MCHR2 S295(7.42)A (Homo sapiens, UniProt Q969V1, S295A); assay: IP-One IP1 accumulation assay, MCHR2 S295A; settings: n = 3 in triplicate
T6 construct: expressed in transfected cells; host or cells: AD293
Description: as §3, §4, §5

MCHR1 Y362(7.35)A = target: T7, MCHR1 Y362(7.35)A (Homo sapiens, UniProt Q99705, Y293A); assay: GloSensor cAMP assay, MCHR1 Y362A; settings: HEK293, mean ± S.E.M., n = 3 in triplicate
T7 construct: expressed in transfected cells; host or cells: HEK293
Description: as §1, §2

MCHR2 D113(3.32)A = target: T8, MCHR2 D113(3.32)A (Homo sapiens, UniProt Q969V1, D113A); assay: IP-One IP1 accumulation assay, MCHR2 D113A; settings: n = 3 in triplicate
T8 construct: expressed in transfected cells; host or cells: AD293
Description: as §3, §4, §5

MCHR1 I254(ECL2)A = target: T9, MCHR1 I254(ECL2)A (Homo sapiens, UniProt Q99705, I185A); assay: GloSensor cAMP assay, MCHR1 I254A; settings: HEK293, mean ± S.E.M., n = 3 in triplicate
T9 construct: expressed in transfected cells; host or cells: HEK293
Description: as §1, §2

MCHR2 V181(ECL2)A = target: T10, MCHR2 V181(ECL2)A (Homo sapiens, UniProt Q969V1, V181A); assay: IP-One IP1 accumulation assay, MCHR2 V181A; settings: n = 3 in triplicate
T10 construct: expressed in transfected cells; host or cells: AD293
Description: as §3, §4, §5

MCHR2 T198(5.39)A = target: T11, MCHR2 T198(5.39)A (Homo sapiens, UniProt Q969V1, T198A); assay: IP-One IP1 accumulation assay, MCHR2 T198A; settings: n = 3 in triplicate
T11 construct: expressed in transfected cells; host or cells: AD293
Description: as §3, §4, §5

MCHR2 W93(2.64)A = target: T12, MCHR2 W93(2.64)A (Homo sapiens, UniProt Q969V1, W93A); assay: IP-One IP1 accumulation assay, MCHR2 W93A; settings: n = 3 in triplicate
T12 construct: expressed in transfected cells; host or cells: AD293
Description: as §3, §4, §5

MCHR2 F186(45.52)A = target: T13, MCHR2 F186(45.52)A (Homo sapiens, UniProt Q969V1, F186A); assay: IP-One IP1 accumulation assay, MCHR2 F186A; settings: AD293, mean ± S.E.M., n = 3 in triplicate
T13 construct: expressed in transfected cells; host or cells: AD293
Description: as §3, §4, §5

MCHR2 L89(2.60)A = target: T14, MCHR2 L89(2.60)A (Homo sapiens, UniProt Q969V1, L89A); assay: IP-One IP1 accumulation assay, MCHR2 L89A; settings: n = 3 in triplicate
T14 construct: expressed in transfected cells; host or cells: AD293
Description: as §3, §4, §5

MCHR2 Y267(6.51)A = target: T15, MCHR2 Y267(6.51)A (Homo sapiens, UniProt Q969V1, Y267A); assay: IP-One IP1 accumulation assay, MCHR2 Y267A; settings: n = 3 in triplicate
T15 construct: expressed in transfected cells; host or cells: AD293
Description: as §3, §4, §5

MCHR1 F256(ECL2)A = target: T16, MCHR1 F256(ECL2)A (Homo sapiens, UniProt Q99705, F187A); assay: GloSensor cAMP assay, MCHR1 F256A; settings: HEK293, mean ± S.E.M., n = 3 in triplicate
T16 construct: expressed in transfected cells; host or cells: HEK293
Description: as §1, §2

MCHR2 Q117(3.36)A = target: T17, MCHR2 Q117(3.36)A (Homo sapiens, UniProt Q969V1, Q117A); assay: IP-One IP1 accumulation assay, MCHR2 Q117A; settings: n = 3 in triplicate
T17 construct: expressed in transfected cells; host or cells: AD293
Description: as §3, §4, §5

[1] = AD293, IP-One HTRF, 37 °C 1 h, mean ± S.E.M., P < 0.0001 vs WT

T10 sequence (Q969V1 whole entry V181A): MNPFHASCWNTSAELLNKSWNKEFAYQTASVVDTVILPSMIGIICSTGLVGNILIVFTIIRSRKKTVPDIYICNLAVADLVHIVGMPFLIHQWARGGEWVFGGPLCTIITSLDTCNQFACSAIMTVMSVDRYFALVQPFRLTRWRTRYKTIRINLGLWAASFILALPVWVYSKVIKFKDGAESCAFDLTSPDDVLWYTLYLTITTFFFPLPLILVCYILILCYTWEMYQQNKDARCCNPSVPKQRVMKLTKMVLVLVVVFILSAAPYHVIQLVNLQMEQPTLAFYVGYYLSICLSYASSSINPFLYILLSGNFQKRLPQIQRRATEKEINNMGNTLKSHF
T4 sequence (Q969V1 whole entry Q92A): as the sequence (Q969V1 whole entry V181A) above, with Q92A, A181V counted along it
T14 sequence (Q969V1 whole entry L89A): as the sequence (Q969V1 whole entry V181A) above, with L89A, A181V counted along it
T17 sequence (Q969V1 whole entry Q117A): as the sequence (Q969V1 whole entry V181A) above, with Q117A, A181V counted along it
T8 sequence (Q969V1 whole entry D113A): as the sequence (Q969V1 whole entry V181A) above, with D113A, A181V counted along it
T5 sequence (Q969V1 whole entry): as the sequence (Q969V1 whole entry V181A) above, with A181V counted along it
T12 sequence (Q969V1 whole entry W93A): as the sequence (Q969V1 whole entry V181A) above, with W93A, A181V counted along it
T11 sequence (Q969V1 whole entry T198A): as the sequence (Q969V1 whole entry V181A) above, with A181V, T198A counted along it
T2 sequence (Q969V1 whole entry F177A): as the sequence (Q969V1 whole entry V181A) above, with F177A, A181V counted along it
T15 sequence (Q969V1 whole entry Y267A): as the sequence (Q969V1 whole entry V181A) above, with A181V, Y267A counted along it
T6 sequence (Q969V1 whole entry S295A): as the sequence (Q969V1 whole entry V181A) above, with A181V, S295A counted along it
T7 sequence (Q99705 whole entry Y293A): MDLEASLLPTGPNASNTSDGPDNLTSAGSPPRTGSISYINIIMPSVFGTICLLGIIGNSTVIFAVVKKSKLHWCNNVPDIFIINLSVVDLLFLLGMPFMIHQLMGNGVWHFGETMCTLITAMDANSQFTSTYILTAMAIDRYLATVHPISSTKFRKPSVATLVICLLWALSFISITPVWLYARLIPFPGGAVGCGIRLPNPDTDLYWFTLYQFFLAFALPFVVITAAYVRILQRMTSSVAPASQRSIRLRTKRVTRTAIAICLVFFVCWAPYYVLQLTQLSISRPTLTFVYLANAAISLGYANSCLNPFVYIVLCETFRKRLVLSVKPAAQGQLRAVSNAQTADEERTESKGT
T9 sequence (Q99705 whole entry I185A): as the sequence (Q99705 whole entry Y293A) above, with I185A, A293Y counted along it
T13 sequence (Q969V1 whole entry F186A): as the sequence (Q969V1 whole entry V181A) above, with A181V, F186A counted along it
T16 sequence (Q99705 whole entry F187A): as the sequence (Q99705 whole entry Y293A) above, with F187A, A293Y counted along it
T1 sequence (Q99705 whole entry D123A): as the sequence (Q99705 whole entry Y293A) above, with D123A, A293Y counted along it
T3 sequence (Q99705 whole entry F92A): as the sequence (Q99705 whole entry Y293A) above, with F92A, A293Y counted along it

In the case of `CSCC[C@@H]1NC(=O)[C@@H](NC(=O)[C@H](CCCNC(=N)N)NC(=O)[C@H](CC(C)C)NC(=O)[C@H](CCSC)NC(=O)[C@H](CC(=O)O)NC(=O)[C@H](Cc2ccccc2)NC(=O)[C@@H](N)CC(=O)O)CSSC[C@@H](C(=O)N[C@@H](Cc2c[nH]c3ccccc23)C(=O)N[C@@H](CCC(N)=O)C(=O)N[C@H](C(=O)O)C(C)C)NC(=O)[C@@H]2CCCN2C(=O)[C@H](CCCNC(=N)N)NC(=O)[C@H](Cc2ccc(O)cc2)NC(=O)[C@H](C(C)C)NC(=O)[C@H](CCCNC(=N)N)NC(=O)CNC(=O)[C@H](CC(C)C)NC1=O` [MCH, Melanin-concentrating hormone], the Emax (MCHR1 D192(3.32)A) is reported as 40 ± 7%, the EC50 (MCHR2 F177(ECL2)A; [1]) is reported as 3980 nM and the Emax (MCHR2 F177(ECL2)A; AD293, mean ± S.E.M.) is reported as 97 ± 2%. The Emax (MCHR1 F161(2.53)A) was 124 ± 1%, the EC50 (MCHR2 Q92(2.63)A; [1]) was 9120 nM and the Emax (MCHR2 Q92(2.63)A; AD293, mean ± S.E.M.) was 25 ± 2%. The EC50 (MCHR2 WT; 37 °C 1 h, three independent experiments in triplicate) was 3.16 nM, the Emax (MCHR2 WT; normalized by WT receptor, n = 3 in triplicate) was 100% and the EC50 (MCHR2 S295(7.42)A; [1]) was 234 nM. The Emax (MCHR2 S295(7.42)A; AD293, mean ± S.E.M.) was 81 ± 2%, the Emax (MCHR1 Y362(7.35)A) was 95% and the EC50 (MCHR2 D113(3.32)A; [1]) was 2040 nM. For the same compound, the Emax (MCHR2 D113(3.32)A; AD293, mean ± S.E.M.) was 101 ± 2%, the Emax (MCHR1 I254(ECL2)A) was 98 ± 3% and the EC50 (MCHR2 V181(ECL2)A; [1]) was 53.7 nM. For the same compound, the Emax (MCHR2 V181(ECL2)A; AD293, mean ± S.E.M.) was 96 ± 1%, the EC50 (MCHR2 T198(5.39)A; [1]) was 69.2 nM and the Emax (MCHR2 T198(5.39)A; AD293, mean ± S.E.M.) was 93 ± 2%. It also gave an EC50 (MCHR2 W93(2.64)A; [1]) of 6030 nM, an Emax (MCHR2 W93(2.64)A; AD293, mean ± S.E.M.) of 91 ± 1% and an Emax (MCHR2 F186(45.52)A) of 98%. For the same compound, the EC50 (MCHR2 L89(2.60)A; AD293, IP-One HTRF, 37 °C 1 h, mean ± S.E.M., P 0.1322 vs WT) was 9.12 nM, the Emax (MCHR2 L89(2.60)A; AD293, mean ± S.E.M.) was 104 ± 2% and the EC50 (MCHR2 Y267(6.51)A; [1]) was 200 nM. For the same compound, the Emax (MCHR2 Y267(6.51)A; AD293, mean ± S.E.M.) was 92 ± 1%, the Emax (MCHR1 F256(ECL2)A) was 106 ± 2% and the EC50 (MCHR2 Q117(3.36)A; AD293, IP-One HTRF, 37 °C 1 h, mean ± S.E.M., P 0.0352 vs WT) was 10.7 nM. The Emax (MCHR2 Q117(3.36)A; AD293, mean ± S.E.M.) was 96 ± 2%.
